Measurements taken from patent US10441659B2, “Lipids for therapeutic agent delivery formulations” (Nitto Denko Corporation, priority 2012, dated 2019).

Columns and labels:
gp46 mRNA in pHSC [1] = assay: In vitro (pHSC) gp46 knockdown by siRNA liposome formulations, qRT-PCR; assay type: cell-based
gp46 mRNA in pHSC [2] = assay: as above; assay type: cell-based; conditions: @ 20 nM
Protocol: In Vitro (pHSC, Gp46 KD @ 20 nM) Efficacy
PHSCs in 96-well plate were incubated with formulation that composed of either ionizable lipid formulation C104, ionizable lipid formulation Tu104, or combination formulations with different ratio of ionizable lipids (C104:Tu104). After 30 minutes, medium was replaced with fresh growth medium. Forty eight hours later, cells were lysed and gp46 and GAPDH mRNA levels measured by quantitative RT-PCR (TaqMan®) assay, and gp46 levels were normalized to GAPDH levels. Normalized gp46 levels were expressed as percent of mock control cells. Error bars indicate standard deviations (n=3). Results are depicted in FIG. 1.
Transfection method is same for LX-2 and pHSCs. The liposome formulations or lipoplex formulations of the description were mixed with growth medium at desired concentrations. 100 μl of the mixture was added to the cells in 96-well plate and cells were incubated for 30 min at 37° C. in the incubator with 5% CO2. After 30 min, medium was replaced with fresh growth medium. After 48 h of transfection, cells were processed using Cell-to-Ct lysis reagents (Applied Biosystems) according to the manufacturer's instructions.
HSP47 and GAPDH TaqMan®® assays and One-Step RT-PCR master mix were purchased from Applied Biosystems. Each PCR reaction contained the following composition: One-step RT-PCR mix 5 μl, TaqMan® RT enzyme mix 0.25 μl, TaqMan® gene expression assay probe (HSP47) 0.25 μl, TaqMan® gene expression assay probe (GAPDH) 0.5 μl, RNase free water 3.25 μl, Cell lysate 0.75 μl, Total volume of 10 μl. GAPDH was used as endogenous control for the relative quantification of HSP47 mRNA levels. Quantitative RT-PCR was performed in ViiA 7 realtime PCR system (Applied Biosciences). All values were normalized to the average HSP47 expression of the mock transfected cells and expressed as percentage of HSP47 expression compared to mock.

gp46 mRNA = assay: In vivo (DMNQ) efficacy, short-term liver damage model, liver gp46 mRNA; parameters: species or system male Sprague-Dawley rats; conditions: single IV dose, liver 24 h after
Protocol: In vivo activity of target formulation was evaluated in the short-term liver damage model (referred to as the Quick Model or DMNQ). In this model, the short-term liver damage induced by treatment with a hepatotoxic agent such as dimethylnitrosamine (DMN) is accompanied by the elevation of gp46 mRNA levels. To induce these changes, male Sprague-Dawley rats were injected intraperitoneally with DMN on six consecutive days. At the end of the DMN treatment period, the animals were randomized to groups based upon individual animal body weight. Formulations was administered as a single IV dose, one hour after the last injection of DMN. Twenty four hours after, liver lobes were excised and both gp46 and MRPL19 mRNA levels were determined by quantitative RT-PCR (TaqMan) assay. mRNA levels for gp46 were normalized to MRPL19 levels. Results are depicted in FIG. 4. Several combinations of ionizable:cationic lipids achieved 50% reduction in gene expression for a single, 0.5 mg per kg of animal body weight, dose of encapsulated siRNA.

HepG2 cells = assay: HepG2 cytotoxicity assay (CellTiter-Glo); assay type: cell-based, human; conditions: HepG2 @ 200 nM, 48 h post formulation addition, n=3
Protocol: In Vitro Toxicology Data, In Vitro Cytotoxicity (HepG2 @ 200 nM)
HepG2 cells, an adherent cell line derived from human hepatocellular carcinoma, was cultured in MEM/EBSS (Hyclone, Logan, Utah, Cat# SH30024.01) supplemented with 10% FBS (Hyclone, Logan, Utah Cat# SH30910). HepG2 cells were seeded in 96-well Optilux black plates (BD Falcon, Cat # BD353220) at 5000 cells/well overnight. Formulations were added to each well to final indicated siRNA concentration (n=3). At 48 h post formulation addition, cell viability was determined using CellTiter-Glo Luminescent Cell Viability Assay Kit (Promega, Cat #G7572) following manufacture's instruction. Chemiluminescent signal were measured on Clarity Luminescence Microplate Reader (502-Biotek, Winooski, Vt.). Viability was calculated based on % of chemiluminescent signal in formulation treated well normalized against mock treated wells.

CCCCCCCCCCCCCC(=O)OCCN(CCOC(=O)CCCCCCCCCCCCC)C(=O)CN(C)C [i-DC, ((2-(dimethylamino)acetyl)azanediyl)bis(ethane-2,1-diyl) ditetradecanoate]
in vitro (pHSC) % KD (gp46 mRNA in pHSC [1]; @ 200 nM): 89% @ 200 nM

CCCCCCCCCCCCCC(=O)OCCN(CCOC(=O)CCCCCCCCCCCCC)C(=O)CS(=O)(=O)CCN(C)C [SO2-S104, ((2-((2-(dimethylamino)ethyl)sulfonyl)acetyl)azanediyl)bis(ethane-2,1-diyl) ditetradecanoate]
in vitro (pHSC) % KD (gp46 mRNA in pHSC [2]): 75% @ 20 nM | in vivo (rat DMNQ) % KD (gp46 mRNA; @ 0.5 mpk): 18% @ 0.5 mpk

CCCCCCCCCCCCCC(=O)OCCN(CCOC(=O)CCCCCCCCCCCCC)C(=O)CCN(C)C [i-Et-DC, ((3-(dimethylamino)propanoyl)azanediyl)bis(ethane-2,1-diyl) ditetradecanoate]
in vitro (pHSC) % KD (gp46 mRNA in pHSC [1]; @ 50 nM): 65% @ 50 nM

CCCCCCCCCCCCCC(=O)OCCCN(CCCOC(=O)CCCCCCCCCCCCC)C(=O)CN(C)C [i-Pr-DC, ((2-(dimethylamino)acetyl)azanediyl)bis(propane-3,1-diyl) ditetradecanoate]
in vitro (pHSC) % KD (gp46 mRNA in pHSC [1]; @ 50 nM): 53% @ 50 nM

CCCCCCCCCCCCCC(=O)OCCN(CCOC(=O)CCCCCCCCCCCCC)C(=O)CSCCN(C)C [Lipid S104, ((2-((2-(dimethylamino)ethyl)thio)acetyl)azanediyl)bis(ethane-2,1-diyl) ditetradecanoate]
in vitro (pHSC) % KD (gp46 mRNA in pHSC [1]; @ 50 nM): 68% @ 50 nM | % viability (HepG2 cells): 52% | in vivo (rat DMNQ) % KD (gp46 mRNA; @ 0.5 mpk): 52% @ 0.5 mpk

CCCCCCCCCCCCCC(=O)OCCN(CCOC(=O)CCCCCCCCCCCCC)C(=O)c1ccc(CN(C)C)s1 [Lipid T104, ((5-((dimethylamino)methyl)thiophene-2-carbonyl)azanediyl)bis(ethane-2,1-diyl) ditetradecanoate]
in vitro (pHSC) % KD (gp46 mRNA in pHSC [2]): 58% @ 20 nM

CCCC/C=C/CCCCCCCC(=O)OCCN(CCOC(=O)CCCCCCC/C=C/CCCC)C(=O)CSCCN(C)C [S104-DMO, (9Z,9′Z)-((2-((2-(dimethylamino)ethyl)thio)acetyl)azanediyl)bis(ethane-2,1-diyl) bis(tetradec-9-enoate)]
in vitro (pHSC) % KD (gp46 mRNA in pHSC [1]; @ 10 nM): 40% @ 10 nM

CCCCCCCCCCCCCC(=O)OCCN(CCOC(=O)CCCCCCCCCCCCC)C(=O)COCCN(C)C [Lipid O104, ((2-(2-(dimethylamino)ethoxy)acetyl)azanediyl)bis(ethane-2,1-diyl) ditetradecanoate]
in vitro (pHSC) % KD (gp46 mRNA in pHSC [2]): 55% @ 20 nM

CCCCCCCC/C=C\CCCCCCCC(=O)OCCCN(CCCOC(=O)CCCCCCC/C=C\CCCCCCCC)C(=O)CN(C)C [i-Pr- DODC, (Z)-((2-(dimethylamino)acetyl)azanediyl)bis(propane-3,1-diyl) dioleate]
in vitro (pHSC) % KD (gp46 mRNA in pHSC [1]; @ 50 nM): 60% @ 50 nM

CCCCCCCC/C=C\CCCCCCCC(=O)OCCN(CCOC(=O)CCCCCCC/C=C\CCCCCCCC)C(=O)CCCCN(C)C [C104-DO, (Z)-((5-(dimethylamino)pentanoyl)azanediyl)bis(ethane-2,1-diyl) dioleate]
in vitro (pHSC) % KD (gp46 mRNA in pHSC [2]): 32% @ 20 nM

CCCCCCCCCCCCCC(=O)OCCN(CCOC(=O)CCCCCCCCCCCCC)C(=O)OCCCN(C)C [CB104, (((3-(dimethylamino)propoxy)carbonyl)azanediyl)bis(ethane-2,1-diyl) ditetradecanoate]
in vitro (pHSC) % KD (gp46 mRNA in pHSC [2]): 42% @ 20 nM

CCCCCCCC/C=C\CCCCCCCC(=O)OCCN(CCOC(=O)CCCCCCC/C=C\CCCCCCCC)C(=O)SCCN(C)C [TU104-DO, (Z)-((((2-(dimethylamino)ethyl)thio)carbonyl)azanediyl)bis(ethane-2,1-diyl) dioleate]
in vitro (pHSC) % KD (gp46 mRNA in pHSC [2]): 81% @ 20 nM | in vivo (rat DMNQ) % KD (gp46 mRNA; @ 0.25 mpk): 40% @ 0.25 mpk

CCCCCCCC/C=C\CCCCCCCC(=O)OCCN(CCOC(=O)CCCCCCC/C=C\CCCCCCCC)C(=O)CCN(C)C [i-Et- DODC, (Z)-((3-(dimethylamino)propanoyl)azanediyl)bis(ethane-2,1-diyl) dioleate]
in vitro (pHSC) % KD (gp46 mRNA in pHSC [1]; @ 50 nM): 43% @ 50 nM

CCCCCCCC/C=C\CCCCCCCC(=O)OCCN(CCOC(=O)CCCCCCC/C=C\CCCCCCCC)C(=O)CN(C)C [INT-4, (Z)-((2-(dimethylamino)acetyl)azanediyl)bis(ethane-2,1-diyl) dioleate]
in vitro (pHSC) % KD (gp46 mRNA in pHSC [1]; @ 50 nM): 70% @ 50 nM

CCCCCCCCCCCCCC(=O)OCCN(CCOC(=O)CCCCCCCCCCCCC)C(=O)CCCN(C)C [i-Prop- DC, ((4-(dimethylamino)butanoyl)azanediyl)bis(ethane-2,1-diyl) ditetradecanoate]
in vitro (pHSC) % KD (gp46 mRNA in pHSC [1]; @ 50 nM): 55% @ 50 nM | in vitro (pHSC) % KD (gp46 mRNA in pHSC [2]): 54% @ 20 nM

CCCCCCCC/C=C\CCCCCCCC(=O)OCCN(CCOC(=O)CCCCCCC/C=C\CCCCCCCC)C(=O)CCCN(C)C [i-Prop- DODC, (Z)-((4-(dimethylamino)butanoyl)azanediyl)bis(ethane-2,1-diyl) dioleate]
in vitro (pHSC) % KD (gp46 mRNA in pHSC [1]; @ 50 nM): 55% @ 50 nM | in vitro (pHSC) % KD (gp46 mRNA in pHSC [2]): 27% @ 20 nM

CCCCCCCCCCCCCC(=O)OCCN(CCOC(=O)CCCCCCCCCCCCC)C(=O)CCCCN(C)C [Lipid C104, ((5-(dimethylamino)pentanoyl)azanediyl)bis(ethane-2,1-diyl) ditetradecanoate]
in vitro (pHSC) % KD (gp46 mRNA in pHSC [2]): 53% @ 20 nM | in vivo (rat DMNQ) % KD (gp46 mRNA; @ 0.5 mpk): 75% @ 0.5 mpk

CCCCCCCCCCCCCC(=O)OCCN(CCOC(=O)CCCCCCCCCCCCC)C(=O)COC(=O)CCCN(C)C [HEDC- M1, ((2-((4-(dimethylamino)butanoyl)oxy)acetyl)azanediyl)bis(ethane-2,1-diyl) ditetradecanoate]
in vitro (pHSC) % KD (gp46 mRNA in pHSC [2]): 53% @ 20 nM

CCCCCCCC/C=C\CCCCCCCC(=O)OCCN(CCOC(=O)CCCCCCC/C=C\CCCCCCCC)C(=O)CSCCN(C)C [S104-DO, (Z)-((2-((2-(dimethylamino)ethyl)thio)acetyl)azanediyl)bis(ethane-2,1-diyl) dioleate]
in vitro (pHSC) % KD (gp46 mRNA in pHSC [2]): 78% @ 20 nM | in vivo (rat DMNQ) % KD (gp46 mRNA; @ 0.5 mpk): 65% @ 0.5 mpk

CCCCCCCCCCCCCC(=O)OCCN(CCOC(=O)CCCCCCCCCCCCC)C(=O)SCCN(C)C [TU104, ((((2-(dimethylamino)ethyl)thio)carbonyl)azanediyl)bis(ethane-2,1-diyl) ditetradecanoate]
in vitro (pHSC) % KD (gp46 mRNA in pHSC [2]): 76% @ 20 nM
